# According to patent US11987579B2 (Duke University, priority 2018, dated 2024):
# Where two headings read alike, the source gives them in different places.
# Tests used:
# pAMPK = test: Evaluation of phospho-AMPK levels by Western blot; assay type: cell-based; details: CCD841Co cells, whole cell lysate, vs DMSO control
# Procedure: 12-well plates were incubated with 250 μL poly-D-lysine solution (Sigma, catalog number P6407) at 10 μg/mL for 30 minutes at room, temperature, the poly-D-lysine solution was removed, and the wells washed twice with 500 μL distilled water. Colonic epithelial CCD841Co cells were cultured in MEM medium plus 1 mM sodium pyruvate (Invitrogen, catalog number 11360070), lx MEM Non-Essential Amino Acids (Gibco catalog number 11140), 10% FBS, and 100 U/ml penicillinstreptomycin. 0.27 million CCD841Co cells per well were plated in culture medium in the poly-Dlysine coated 12-well plates and allowed to attach overnight at 37° C. in a 5% CO2 incubator. The next morning, the media was replaced with DMSO vehicle in cell media, DK419 or niclosamidein DMSO diluted to the indicated concentration with DMEM medium (Sigma, catalog number D5030) supplemented with 2 mM sodium pyruvate and 2 mM L-glutamine (Invitrogen, catalog number 25030081). […] After 30 minutes treatment, the media was removed and the cells were lysed with 120 μL 1×Laemmii sample buffer. Immunoblots of the cell lysates using antibodies to phospho-AMPK (pAMPK) (Cell Signaling Technology, catalog number 2535) and AMPK (Cell Signaling Technology, catalog number 2532) was used to detect phosphorylated AMPK ([…]) levels and total AMPK levels, respectively. Antibodies to β-actin were used as loading controls.
# SW948 = test: Inhibition of cell proliferation by MTS assay, SW948; assay type: cell-based; details: Homo sapiens; SW948, MTS assay at 72 hr
# Procedure: (§1) Colon cancer cell lines SW948, HT-29, HCT116, CRC240, SW480, and DLD-1 were used in the cell proliferation assay. All cell lines, except CRC240, were from ATCC. CRC240, a colorectal cancer patient derived xenograft (PDX) cell line, was obtained from the Hsu lab (Duke University). Generation of CRC240 cell line was previously reported. SW948 cells were cultured in Leibovitz's medium (Gibco, catalog number 21083-027). HT-29 and HCT116 cells were cultured in McCoy's 5A medium (Gibco, catalog number 16600-082). SW480 cells were cultured in MEM medium. CRC240 and DLD-1 cells were cultured in RPMI medium (Gibco, catalog number 11875-093). All media were supplemented with 10% FBS and 100 U/ml penicillin-streptomycin. […] IC50 values calculated using Graphpad Prism.
# SW480 = test: Inhibition of cell proliferation by MTS assay, SW480; assay type: cell-based; details: Homo sapiens; SW480, MTS assay at 72 hr
# Procedure: as §1
# HCT116 = test: Inhibition of cell proliferation by MTS assay, HCT116; assay type: cell-based; details: Homo sapiens, HCT-116; HCT116, MTS assay at 72 hr
# Procedure: as §1
# CRC240 = test: Inhibition of cell proliferation by MTS assay, CRC240; assay type: cell-based; details: Homo sapiens; CRC240, MTS assay at 72 hr
# Procedure: as §1
# [1] = Pharmacokinetic analysis of DK419 in mouse plasma after oral dose; assay type: in vivo, NOD/SCID mice; details: mice; for Cmax: read-out: Cmax (second line)
# Procedure: DK419 was dissolved in 10% N-Methyl pyrrolidinone (Sigma, catalog number 328634) and 90% PEG300 (Sigma, catalog number 20237) at 0.2 mg/mL, and dosed orally to NOD/SCID mice (n=4) at 1 mg/kg. Blood samples (20 μL) were collected serially from tail vein into vials containing 1 μL of 1000 U/mL heparin at the following time-points: pre-dose, 0.25, 0.5, 1, 2, 4, 8, 24, 48, and 72 h after drug administration. After centrifugation at 1300 g for 5 min at room temperature, plasma was separated and stored at −80° C. until the analysis.
# Quantification of DK419 in mouse plasma was started by vigorous agitation of 4 μL sample, 10 μL of 20 ng/mL DK4-106-3 (in-house made internal standard analog), 20 μL of water, and 100 μL of ethyl-acetate. After centrifugation at 16,000 g for 5 min at room temperature, 80 μL of organic (upper) layer was dried under nitrogen stream, residue reconstituted with a mixture of 50% mobile phase A (10 mM ammonium acetate, 0.1% formic acid) and 50% mobile phase B (methanol), and 5 μL injected into LC/MS/MS system. Analysis was performed on Shimadzu series 20A LC/Applied Biosystems/SCIEX API 4000 QTrap MS/MS instrument. Column: Agilent Eclipse 4.6×50 ram, 1.8 μm at 50° C. Elution gradient: 0-2 min 50-90% B, 2-2.5 min 90% B, 2.5-2.7 min, 90-50% B; flow […]. MS/MS transitions followed: 405.8/218.9 (DK419) and 331.8/311.8 (DK4-106-3; int. std.). Run time: 5 min. Calibration samples were prepared by adding pure DK419 to pooled mouse plasma in 2.4 ng/mL (LLOQ)-1000 ng/mL range and analyzed alongside the PK study samples. The calibration curve was linear (r=0.999).
# HCT116 cells = details: 0.5 and 1.5 μM; cited from earlier work
# [2] = niclosamide 200 mg/kg oral, mice, non-compartmental, cited from earlier work
# [3] = DK419 1 mg/kg oral, compartmental
# [4] = DK419 1 mg/kg oral, non-compartmental
smiles,measurement,setting,value
"O=C(Nc1ccc(C(F)(F)F)cc1)c1cc(Cl)cc2nc(C(F)(F)F)[nH]c12 [DK419, 6-chloro-2-(trifluoromethyl)-N-(4-(trifluoromethyl)phenyl)-1H-benzo[d]imidazole-4-carboxamide]",pAMPK levels by Western blot,pAMPK,increased the levels of pAMPK
same,IC50,SW948,40 nM
same,IC50,SW480,320 nM
same,IC50,HCT116,230 nM
same,IC50,CRC240,310 nM
same,AUCinf,[1]; [3],16300 ng·h/mL (per kg BW)
same,AUCinf/DOSE,[1]; [3],16.3 µg·h/mL (per mg)
same,t1/2-absorption,[1]; [3],2.0 h
same,t1/2-elimination,[1]; [3],10.8 h
same,Tmax,"[1]; DK419 1 mg/kg oral, compartmental, 1st order extrav. input, 1st order elimination",5.85 h
same,Cmax,[1]; [3],1790 nM
same,AUCinf,[1]; [4],16900 ng·h/mL (per kg BW)
same,AUCinf/DOSE,[1]; [4],16.9 µg·h/mL (per mg)
same,CL/F,[1]; [4],0.06 L/h (per kg BW)
same,MRT,[1]; [4],15.8 h
same,t1/2-elimination,[1]; [4],9.2 h
same,Tmax,"[1]; DK419 1 mg/kg oral, non-compartmental extravascular input",4.5 h
same,AUC0-LAST,"[1]; DK419 1 mg/kg oral, non-compartmental, 0-72 h",16800 ng·h/mL (per kg BW)
same,Cmax,[1]; [4],1840 nM
same,CL/F,"[1]; NOD/SCID, mouse, plasma, DK419 1 mg/kg oral, compartmental, read-out: CL/F (converted)",1 mL/min/kg
same,time for which plasma levels were sustained,[1]; single 1 mg/kg oral dose,more than 24 hours
same,plasma concentration at 24 hours relative to its IC50 in the TOPFlash and MTS assays,"[1]; single 1 mg/kg oral dose, 24 hours",3 fold
"O=C(Nc1ccc([N+](=O)[O-])cc1Cl)c1cc(Cl)ccc1O [Niclosamide, reference compound]",pAMPK levels by Western blot,pAMPK,increased pAMPK levels
same,IC50,SW948,100 nM
same,oxygen consumption rate in HCT116 cells,HCT116 cells,caused oxygen consumption rate to increase
same,AUC0-LAST,[2]; 0-24 h,1010 ng·h/mL (per kg BW)
same,AUCinf,[2],1020 ng·h/mL (per kg BW)
same,MRT,[2],6.8 h
same,Cmax,[2]; read-out: Cmax (second line),2730 nM
same,IC50,SW480,740 nM
same,IC50,HCT116,310 nM
same,IC50,CRC240,680 nM
